From article PMC11089204 (Frontiers in Pharmacology, 2024)

Columns and labels:
human 5-HT2C receptor = molecular target: T1, human 5-HT2C receptor (Homo sapiens, UniProt P28335); assay: biochemical; details: HEK 293 membranes, [3H]mesulergine; read-out: h5-HT2C Receptor binding Ki ± SD
T1 construct: expressed in transfected cells; host or cells: HEK 293 membrane preparations

[1] = test system: human intestinal microsomes (HIM); assay: Glucuronidation with human intestinal microsomes; assay type: in vitro ADME; details: for psilocin concentration: absence of HIM
Method: (§1) Corning UltraPool human liver microsomes (HLM) 150 (20 mg/mL), human intestinal microsomes (HIM) pool (10 mg/mL) as well as recombinant human CYP enzymes (with P450 oxidoreductase, OR) including CYP1A2+OR (0.5 nmol), CYP2B6+OR (0.5 nmol), CYP2C8+OR (1.0 nmol), CYP2C9*1+OR (1 nmol), CYP2C19+OR (0.5 nmol), CYP2D6*1+OR (0.5 nmol), CYP2E1+OR + cytochrome b5 (1 nmol), CYP3A4+OR + cytochrome b5 (0.5 nmol), MAO-A (5 mg/mL), MAO-B (5 mg/mL), and UGT1A10 (5 mg/mL) were purchased from Corning Life Sciences B.V (Amsterdam, Netherlands). All microsomes and recombinant enzyme solutions were aliquoted and stored at −80 °C until further use. Co-factors including NADPH regenerating system solution A (25 mM NADP+, 66 mM glucose-6-phosphate, and 66 mM MgCl2 in water), NADPH regenerating system solution B (40 U/mL glucose-6-phosphate dehydrogenase in 5 mM sodium citrate), UGT reaction mix solution A (25 mM uridine 5′-diphospho-glucuronic acid in water), and UGT reaction mix solution B (250 mM Tris-HCl, 40 mM MgCl2, and 0.125 mg/mL alamethicin in water) were also obtained from Corning Life Sciences B.V.
The assay described in section 2.5.1 was adjusted to suit the glucuronidation system. […] HLM were diluted as described in section 2.5.1, while HIM or UGT1A10 enzymes were diluted 1:40 (end concentration […] and 0.125 mg/mL, respectively) in the reaction mix. Sampling time points were adjusted to 0, 15, 30, 60, 90, 120, 180, and 240 min.

recombinant CYP2C9 = molecular target: T2, recombinant CYP2C9 (Homo sapiens, UniProt P11712); assay: Incubation with recombinant CYP2C9 enzymes; assay type: in vitro ADME; details: 1,000 nM psilocin, rec. CYP2C9
T2 construct: purchased Corning Life Sciences B.V
Method: (§2) Corning UltraPool human liver microsomes (HLM) 150 (20 mg/mL), human intestinal microsomes (HIM) pool (10 mg/mL) as well as recombinant human CYP enzymes (with P450 oxidoreductase, OR) including CYP1A2+OR (0.5 nmol), CYP2B6+OR (0.5 nmol), CYP2C8+OR (1.0 nmol), CYP2C9*1+OR (1 nmol), CYP2C19+OR (0.5 nmol), CYP2D6*1+OR (0.5 nmol), CYP2E1+OR + cytochrome b5 (1 nmol), CYP3A4+OR + cytochrome b5 (0.5 nmol), MAO-A (5 mg/mL), MAO-B (5 mg/mL), and UGT1A10 (5 mg/mL) were purchased from Corning Life Sciences B.V (Amsterdam, Netherlands). All microsomes and recombinant enzyme solutions were aliquoted and stored at −80 °C until further use.
(§3) The total volume of the reaction mixture was 500 μL. […] Samples were either directly analyzed by liquid chromatography tandem mass spectrometry (LC-MS/MS) or briefly stored at −20°C until analysis.

recombinant CYP2B6 = molecular target: T3, recombinant CYP2B6 (Homo sapiens, UniProt P20813); assay: Incubation with recombinant CYP2B6 enzymes; assay type: in vitro ADME; details: 1,000 nM psilocin, rec. CYP2B6
T3 construct: purchased Corning Life Sciences B.V
Method: as §2, §3

[2] = test system: human liver microsomes (HLM); assay: Glucuronidation with human liver microsomes; assay type: in vitro ADME; details: 1,000 nM psilocin with HLM and UGT co-factors
Method: as §1
The assay described in section 2.5.1 was adjusted to suit the glucuronidation system. […] HLM were diluted as described in section 2.5.1, while HIM or UGT1A10 enzymes were diluted 1:40 (end concentration […] and 0.125 mg/mL, respectively) in the reaction mix. […]

recombinant CYP2E1 = molecular target: T4, recombinant CYP2E1 (Homo sapiens, UniProt P05181); assay: Incubation with recombinant CYP2E1 enzymes; assay type: in vitro ADME; details: 1,000 nM psilocin, rec. CYP2E1
T4 construct: purchased Corning Life Sciences B.V
Method: as §2, §3

[3] = test system: dopamine (DAT) transporter; design: method as in Rickli et al., 2016; details: ref Rickli et al., 2016; cited from earlier work
recombinant CYP2C8 = molecular target: T5, recombinant CYP2C8 (Homo sapiens, UniProt P10632); assay: Incubation with recombinant CYP2C8 enzymes; assay type: in vitro ADME; details: 1,000 nM psilocin, rec. CYP2C8
T5 construct: purchased Corning Life Sciences B.V
Method: as §2, §3

[4] = molecular target: T6, recombinant human UGT1A10 (Homo sapiens, UniProt Q9HAW8); assay: Glucuronidation with recombinant UGT1A10; assay type: in vitro ADME; details: for psilocin concentration (mean ± SD): 1,000 nM psilocin
T6 construct: purchased Corning Life Sciences B.V
T6 sequence (Q9HAW8 26-530): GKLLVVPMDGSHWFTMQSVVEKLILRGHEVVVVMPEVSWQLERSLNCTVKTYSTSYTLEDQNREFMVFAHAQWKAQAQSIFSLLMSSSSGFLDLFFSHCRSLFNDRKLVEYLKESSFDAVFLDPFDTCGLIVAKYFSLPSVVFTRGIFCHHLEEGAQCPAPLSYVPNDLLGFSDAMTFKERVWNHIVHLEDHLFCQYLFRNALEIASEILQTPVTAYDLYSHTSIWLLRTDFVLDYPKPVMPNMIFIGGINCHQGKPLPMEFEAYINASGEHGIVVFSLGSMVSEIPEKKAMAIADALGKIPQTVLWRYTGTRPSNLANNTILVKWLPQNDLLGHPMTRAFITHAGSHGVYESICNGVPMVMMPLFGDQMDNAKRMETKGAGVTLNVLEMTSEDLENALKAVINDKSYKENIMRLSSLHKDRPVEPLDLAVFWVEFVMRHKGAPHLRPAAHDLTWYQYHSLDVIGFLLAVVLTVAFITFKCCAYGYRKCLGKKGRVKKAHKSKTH
Method: as §2
The assay described in section 2.5.1 was adjusted to suit the glucuronidation system.

recombinant CYP1A2 = molecular target: T7, recombinant CYP1A2 (Homo sapiens, UniProt P05177); assay: Incubation with recombinant CYP1A2 enzymes; assay type: in vitro ADME; details: 1,000 nM psilocin, rec. CYP1A2
T7 construct: purchased Corning Life Sciences B.V
Method: as §2, §3

[5] = test system: norepinephrine transporters (NET); design: method as in Rickli et al., 2016; details: ref Rickli et al., 2016; cited from earlier work
recombinant CYP2C19 = molecular target: T8, recombinant CYP2C19 (Homo sapiens, UniProt P33261); assay: Incubation with recombinant CYP2C19 enzymes; assay type: in vitro ADME; details: 1,000 nM psilocin, rec. CYP2C19
T8 construct: purchased Corning Life Sciences B.V
Method: as §2, §3

T1 sequence (P28335 33-458): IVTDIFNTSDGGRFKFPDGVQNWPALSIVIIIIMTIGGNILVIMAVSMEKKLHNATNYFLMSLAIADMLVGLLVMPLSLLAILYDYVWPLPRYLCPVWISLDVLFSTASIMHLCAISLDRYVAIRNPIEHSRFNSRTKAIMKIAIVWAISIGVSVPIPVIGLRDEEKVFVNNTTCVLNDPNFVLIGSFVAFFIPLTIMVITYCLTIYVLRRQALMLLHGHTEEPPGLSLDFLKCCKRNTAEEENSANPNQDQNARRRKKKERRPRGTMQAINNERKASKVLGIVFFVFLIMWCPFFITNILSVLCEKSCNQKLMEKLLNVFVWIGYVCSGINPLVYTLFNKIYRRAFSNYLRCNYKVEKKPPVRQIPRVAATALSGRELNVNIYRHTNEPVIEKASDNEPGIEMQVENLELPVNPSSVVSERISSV
T8 sequence (P33261 whole entry): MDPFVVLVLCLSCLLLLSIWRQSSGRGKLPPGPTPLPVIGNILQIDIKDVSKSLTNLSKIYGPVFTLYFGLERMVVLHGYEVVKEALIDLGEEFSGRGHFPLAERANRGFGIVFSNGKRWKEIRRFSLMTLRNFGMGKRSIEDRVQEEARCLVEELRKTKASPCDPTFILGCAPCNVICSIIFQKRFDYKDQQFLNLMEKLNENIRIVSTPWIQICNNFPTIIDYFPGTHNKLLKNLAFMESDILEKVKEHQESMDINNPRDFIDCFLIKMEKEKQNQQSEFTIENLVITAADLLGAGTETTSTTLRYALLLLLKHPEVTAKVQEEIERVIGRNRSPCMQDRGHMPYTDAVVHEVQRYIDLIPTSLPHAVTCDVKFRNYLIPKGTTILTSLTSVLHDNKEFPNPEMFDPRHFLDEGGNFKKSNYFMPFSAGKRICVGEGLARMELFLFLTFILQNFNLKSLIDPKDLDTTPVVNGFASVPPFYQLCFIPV
T4 sequence (P05181 whole entry): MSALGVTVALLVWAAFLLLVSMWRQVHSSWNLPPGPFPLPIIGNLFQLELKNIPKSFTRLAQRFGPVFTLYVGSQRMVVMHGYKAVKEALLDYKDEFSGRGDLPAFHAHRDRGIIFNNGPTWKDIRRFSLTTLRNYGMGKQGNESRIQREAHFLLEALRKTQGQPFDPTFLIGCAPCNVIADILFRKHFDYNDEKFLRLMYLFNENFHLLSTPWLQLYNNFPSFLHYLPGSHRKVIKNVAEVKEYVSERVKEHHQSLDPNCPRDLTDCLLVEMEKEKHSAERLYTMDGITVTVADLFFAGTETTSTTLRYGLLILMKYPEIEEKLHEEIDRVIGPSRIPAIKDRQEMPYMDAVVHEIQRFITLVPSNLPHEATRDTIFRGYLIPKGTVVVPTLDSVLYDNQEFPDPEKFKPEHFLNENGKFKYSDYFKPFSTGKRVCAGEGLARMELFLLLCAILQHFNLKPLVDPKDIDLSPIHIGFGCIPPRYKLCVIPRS
T3 sequence (P20813 whole entry): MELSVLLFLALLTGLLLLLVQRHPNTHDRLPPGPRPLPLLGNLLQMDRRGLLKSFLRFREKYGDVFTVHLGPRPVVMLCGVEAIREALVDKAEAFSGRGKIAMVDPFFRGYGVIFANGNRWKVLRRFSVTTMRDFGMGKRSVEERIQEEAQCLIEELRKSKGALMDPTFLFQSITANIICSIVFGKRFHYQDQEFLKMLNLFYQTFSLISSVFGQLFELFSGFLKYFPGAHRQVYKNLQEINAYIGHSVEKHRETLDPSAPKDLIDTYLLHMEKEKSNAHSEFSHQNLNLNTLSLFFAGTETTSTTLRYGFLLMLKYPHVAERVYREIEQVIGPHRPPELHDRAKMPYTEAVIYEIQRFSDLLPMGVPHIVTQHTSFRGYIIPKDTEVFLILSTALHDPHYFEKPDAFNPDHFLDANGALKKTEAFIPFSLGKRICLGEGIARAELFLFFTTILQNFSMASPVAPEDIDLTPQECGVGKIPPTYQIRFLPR
T2 sequence (P11712 whole entry): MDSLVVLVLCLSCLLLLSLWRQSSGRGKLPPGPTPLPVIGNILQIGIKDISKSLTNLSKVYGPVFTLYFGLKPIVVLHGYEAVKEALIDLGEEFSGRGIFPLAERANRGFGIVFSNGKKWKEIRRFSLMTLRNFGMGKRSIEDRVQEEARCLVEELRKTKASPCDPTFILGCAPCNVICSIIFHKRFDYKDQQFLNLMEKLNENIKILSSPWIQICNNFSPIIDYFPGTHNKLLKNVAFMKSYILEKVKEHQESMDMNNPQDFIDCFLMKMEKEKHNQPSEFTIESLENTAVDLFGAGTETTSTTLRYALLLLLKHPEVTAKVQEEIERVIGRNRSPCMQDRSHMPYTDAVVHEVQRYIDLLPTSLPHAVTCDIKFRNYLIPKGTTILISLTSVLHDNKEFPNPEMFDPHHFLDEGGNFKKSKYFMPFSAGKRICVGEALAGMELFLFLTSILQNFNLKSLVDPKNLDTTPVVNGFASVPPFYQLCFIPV
T5 sequence (P10632 whole entry): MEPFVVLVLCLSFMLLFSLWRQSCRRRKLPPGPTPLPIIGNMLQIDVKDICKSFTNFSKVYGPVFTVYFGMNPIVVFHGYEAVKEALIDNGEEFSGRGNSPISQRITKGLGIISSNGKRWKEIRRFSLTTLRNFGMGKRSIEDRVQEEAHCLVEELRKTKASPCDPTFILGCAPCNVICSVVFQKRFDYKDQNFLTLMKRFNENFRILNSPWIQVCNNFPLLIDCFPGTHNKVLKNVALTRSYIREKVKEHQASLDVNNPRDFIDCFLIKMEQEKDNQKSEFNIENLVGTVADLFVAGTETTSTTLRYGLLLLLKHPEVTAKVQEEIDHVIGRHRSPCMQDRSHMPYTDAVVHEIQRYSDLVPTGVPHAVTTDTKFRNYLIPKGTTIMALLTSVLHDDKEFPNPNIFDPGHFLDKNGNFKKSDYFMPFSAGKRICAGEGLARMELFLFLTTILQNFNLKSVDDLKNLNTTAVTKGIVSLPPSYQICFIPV
T7 sequence (P05177 2-516 limits assumed): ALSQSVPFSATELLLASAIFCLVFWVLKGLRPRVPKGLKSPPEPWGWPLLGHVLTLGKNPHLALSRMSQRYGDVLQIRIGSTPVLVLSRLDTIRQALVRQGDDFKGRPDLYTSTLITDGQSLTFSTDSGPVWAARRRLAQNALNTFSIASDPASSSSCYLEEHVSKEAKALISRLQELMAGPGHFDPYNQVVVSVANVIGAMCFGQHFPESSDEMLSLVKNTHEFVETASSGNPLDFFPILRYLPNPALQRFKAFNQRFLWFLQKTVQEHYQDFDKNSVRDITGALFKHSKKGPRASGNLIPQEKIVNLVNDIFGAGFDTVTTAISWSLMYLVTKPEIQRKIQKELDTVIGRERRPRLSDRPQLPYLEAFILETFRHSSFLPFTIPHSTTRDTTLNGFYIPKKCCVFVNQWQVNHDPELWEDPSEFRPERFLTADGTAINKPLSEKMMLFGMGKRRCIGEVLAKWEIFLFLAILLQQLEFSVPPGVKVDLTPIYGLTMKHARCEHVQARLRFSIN

Row | SMILES | Ki (human 5-HT2C receptor) | decrease of psilocin concentration through glucuronidation ([1]; 1,000 nM psilocin, HIM, 240 min) | psilocin concentration (mean ± SD) ([1]; HIM, t = 0) | psilocin concentration (mean ± SD) ([1]; HIM, t = 240) | psilocin concentration ([1]; t = 0) | psilocin concentration ([1]; t = 240) | metabolism of psilocin (recombinant CYP2C9) | metabolism of psilocin (recombinant CYP2B6) | glucuronidation of psilocin [2] | metabolism of psilocin (recombinant CYP2E1) | inhibition of DAT [3] | metabolism of psilocin (recombinant CYP2C8) | psilocin concentration (mean ± SD) ([4]; rec. UGT1A10, t = 0 min) | psilocin concentration (mean ± SD) ([4]; rec. UGT1A10, t = 240 min) | psilocin concentration ([4]; absence of UGT1A10, t = 0) | psilocin concentration ([4]; absence of UGT1A10, t = 240) | metabolism of psilocin (recombinant CYP1A2) | inhibition of NET [5] | metabolism of psilocin (recombinant CYP2C19)
1 | O=C(O)Cc1c[nH]c2cccc(O)c12 [4-HIAA, 4-hydroxyindole-3-acetic acid] | > 10 µM | – | – | – | – | – | – | – | – | – | – | – | – | – | – | – | – | – | –
2 | OCCc1c[nH]c2cccc(O)c12 [4-HTP, 4-hydroxytryptophol] | > 10 µM | – | – | – | – | – | – | – | – | – | – | – | – | – | – | – | – | – | –
3 | CN(C)CCc1c[nH]c2cccc(O)c12 [psilocin, 4-hydroxy-N,N-dimethyltryptamine] | – | 37% | 1,085 ± 157 nM | 684 ± 53 nM | 980 ± 77 nM | 893 ± 91 nM | did not metabolize | did not metabolize | No glucuronidation was observed | did not metabolize | not | did not metabolize | 1,029 ± 60 nM | 979 ± 95 nM | 980 ± 77 nM | 893 ± 91 nM | did not metabolize | not | did not metabolize
